# Test results: ChEMBL document CHEMBL1128468, “Amino acid side chain descriptors for quantitative structure-activity relationship studies of peptide analogues” (J Med Chem, 1995)
# Peptide text beside a SMILES is read from it.
# Key:
# [1] = Biological activity for bradykinin potentiating pentapeptide as the logarithm of the relative activity index compared to the reference molecule (Val-Glu-Ser-Ser-Lys).; format: functional
# [2] = molecular target: Angiotensin-converting enzyme (Homo sapiens, UniProt P12821); experiment: Biological activity was measured against Angiotensin I converting enzyme; settings: read-out: Log 1/IC50 (converted)
# Sequence of Angiotensin-converting enzyme (P12821 whole entry): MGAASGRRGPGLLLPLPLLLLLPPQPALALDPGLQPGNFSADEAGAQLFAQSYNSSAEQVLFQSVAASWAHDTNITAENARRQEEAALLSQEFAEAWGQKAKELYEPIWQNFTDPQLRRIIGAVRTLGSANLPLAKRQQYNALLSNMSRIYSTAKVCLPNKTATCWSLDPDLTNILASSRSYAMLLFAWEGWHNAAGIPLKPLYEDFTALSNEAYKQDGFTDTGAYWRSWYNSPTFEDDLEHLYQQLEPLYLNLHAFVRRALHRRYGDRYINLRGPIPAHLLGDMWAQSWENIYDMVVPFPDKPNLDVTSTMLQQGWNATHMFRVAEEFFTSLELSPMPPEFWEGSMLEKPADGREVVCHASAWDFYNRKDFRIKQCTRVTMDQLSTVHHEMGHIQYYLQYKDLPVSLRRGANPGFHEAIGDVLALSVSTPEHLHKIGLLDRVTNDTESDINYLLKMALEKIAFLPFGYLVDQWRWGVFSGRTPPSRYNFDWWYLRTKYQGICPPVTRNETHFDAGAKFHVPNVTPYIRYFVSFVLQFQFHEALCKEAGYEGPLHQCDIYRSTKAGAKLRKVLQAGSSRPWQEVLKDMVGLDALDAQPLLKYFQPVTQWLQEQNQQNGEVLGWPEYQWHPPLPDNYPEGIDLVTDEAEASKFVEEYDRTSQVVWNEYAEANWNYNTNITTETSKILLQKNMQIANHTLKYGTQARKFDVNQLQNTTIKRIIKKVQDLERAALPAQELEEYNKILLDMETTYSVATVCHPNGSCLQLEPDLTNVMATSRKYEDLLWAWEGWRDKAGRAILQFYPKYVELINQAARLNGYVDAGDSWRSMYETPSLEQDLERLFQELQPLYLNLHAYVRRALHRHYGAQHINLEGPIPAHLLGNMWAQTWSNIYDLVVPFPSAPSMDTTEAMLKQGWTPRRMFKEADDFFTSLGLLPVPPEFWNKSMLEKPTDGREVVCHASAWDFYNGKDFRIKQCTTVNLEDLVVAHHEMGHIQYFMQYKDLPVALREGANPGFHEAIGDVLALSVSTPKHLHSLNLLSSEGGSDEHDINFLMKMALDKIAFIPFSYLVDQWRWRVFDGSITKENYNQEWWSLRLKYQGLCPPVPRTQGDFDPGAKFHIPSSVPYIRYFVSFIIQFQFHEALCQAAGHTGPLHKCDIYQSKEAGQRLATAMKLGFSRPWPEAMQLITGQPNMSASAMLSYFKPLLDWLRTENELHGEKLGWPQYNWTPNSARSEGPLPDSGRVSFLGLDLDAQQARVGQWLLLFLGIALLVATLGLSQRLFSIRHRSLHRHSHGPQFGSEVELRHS
Compound,Log RAI [1],IC50 [2]
H-VKWAA-OH,1.71,
H-VWAAK-OH,0.04,
NC(=O)CC[C@H](N)C(=O)NCC(=O)O (H-Gln-Gly-OH),,7410 µM
N=C(N)NCCC[C@H](NC(=O)CN)C(=O)O (H-Gly-Arg-OH),,3240 µM
H-FSPFR-OH,0.64,
H-VAWAK-OH,1.45,
H-VESAK-OH,0.28,
CC(C)[C@H](N)C(=O)NCC(=O)O [VAL-GLY] (H-Val-Gly-OH),,1100 µM
NCCCC[C@H](N)C(=O)NCC(=O)O (H-Lys-Gly-OH),,3240 µM
H-VEWVK-OH,1.71,
N[C@@H](Cc1c[nH]cn1)C(=O)NCC(=O)O (H-His-Gly-OH),,6310 µM
CSCC[C@H](N)C(=O)NCC(=O)O (H-Met-Gly-OH),,4790 µM
C[C@H](NC(=O)[C@@H](N)CCCCN)C(=O)O (H-Lys-Ala-OH),,380 µM
CC(C)[C@H](NC(=O)CN)C(=O)O (H-Gly-Val-OH),,4570 µM
N=C(N)NCCC[C@H](N)C(=O)N1CCC[C@@H]1C(=O)O,,182 µM
NCC(=O)NCC(=O)NCC(=O)NCC(=O)NCC(=O)O,0,
NCC(=O)NCC(=O)O (H-Gly-Gly-OH),,7240 µM
C[C@H](NC(=O)[C@@H](N)CC(=O)O)C(=O)O (H-Asp-Ala-OH),,3800 µM
H-VAWAA-OH,1.43,
C[C@H](N)C(=O)N[C@@H](Cc1ccc(O)cc1)C(=O)O (H-Ala-Tyr-OH),,87.1 µM
CC[C@H](C)[C@H](N)C(=O)N[C@@H](Cc1c[nH]c2ccccc12)C(=O)O,,2 µM
CC(C)C[C@H](N)C(=O)N[C@@H](C)C(=O)O [LEU-ALA] (H-Leu-Ala-OH),,309 µM
H-VEHAK-OH,1.53,
C[C@H](NC(=O)[C@@H](N)CCC(=O)O)C(=O)O (H-Glu-Ala-OH),,10000 µM
C[C@H](NC(=O)[C@@H](N)Cc1ccc(O)cc1)C(=O)O,,457 µM
H-VAAAK-OH,-0.1,

Compound,Log RAI [1],IC50 [2]
C[C@H](N)C(=O)N[C@@H](C)C(=O)O (H-Ala-Ala-OH),,617 µM
CC(C)[C@H](N)C(=O)N[C@@H](Cc1ccc(O)cc1)C(=O)O (H-Val-Tyr-OH),,21.9 µM
H-FEAAK-OH,0.3,
NCC(=O)N[C@@H](Cc1ccc(O)cc1)C(=O)O (H-Gly-Tyr-OH),,209 µM
H-VEGGK-OH,-1,
C[C@H](N)C(=O)N[C@@H](C)C(=O)N[C@@H](C)C(=O)N[C@@H](C)C(=O)N[C@@H](C)C(=O)O,-0.1,
CC(C)C[C@H](N)C(=O)NCC(=O)O (H-Leu-Gly-OH),,8710 µM
C[C@H](N)C(=O)NCC(=O)O (H-Ala-Gly-OH),,2510 µM
H-VEAAP-OH,0.18,
NCC(=O)N[C@@H](Cc1c[nH]cn1)C(=O)O (H-Gly-His-OH),,3090 µM
N[C@@H](CO)C(=O)NCC(=O)O (H-Ser-Gly-OH),,8510 µM
CC[C@H](C)[C@H](NC(=O)CN)C(=O)O (H-Gly-Ile-OH),,1200 µM
H-AAWAA-OH,0.75,
CC(C)C[C@H](NC(=O)[C@@H](N)Cc1c[nH]cn1)C(=O)O (H-His-Leu-OH),,3240 µM
NC(N)=NCCC[C@H](N)C(=O)N[C@@H](Cc1c[nH]c2ccccc12)C(=O)O (H-Arg-Trp-OH),,15.8 µM
NCCCC[C@H](NC(=O)CN)C(=O)O (H-Gly-Lys-OH),,5370 µM
H-VEFAK-OH,1.57,
N[C@@H](CCC(=O)O)C(=O)NCC(=O)O (H-Glu-Gly-OH),,10000 µM
NCC(=O)N[C@@H](CC(=O)O)C(=O)O (H-Gly-Asp-OH),,9120 µM
C[C@H](N)C(=O)N[C@@H](C)C(=O)N[C@@H](Cc1ccc(O)cc1)C(=O)N[C@@H](C)C(=O)N[C@@H](C)C(=O)O,0.46,
C[C@H](O)[C@H](N)C(=O)NCC(=O)O,,10000 µM
N[C@@H](CC(=O)O)C(=O)NCC(=O)O (H-Asp-Gly-OH),,14100 µM
"CC[C@H](C)[C@H](N)C(=O)N1CCCC1C(=O)O (single isomer, unassigned)",,129 µM
H-VEASK-OH,0.2,
N=C(N)NCCC[C@H](N)C(=O)N[C@@H](Cc1ccccc1)C(=O)O,,229 µM
N[C@@H](Cc1c[nH]c2ccccc12)C(=O)NCC(=O)O (H-Trp-Gly-OH),,5890 µM

Compound,Log RAI [1],IC50 [2]
H-PGFSP-OH,0.9,
C[C@@H](O)[C@H](NC(=O)CN)C(=O)O (H-Gly-Thr-OH),,5750 µM
C[C@H](N)C(=O)N[C@@H](Cc1c[nH]c2ccccc12)C(=O)O (H-Ala-Trp-OH),,10 µM
H-GEAAK-OH,-0.52,
NCC(=O)N[C@@H](CCC(N)=O)C(=O)O (H-Gly-Gln-OH),,7080 µM
H-LEAAK-OH,0.4,
C[C@H](NC(=O)[C@@H](N)CCCN=C(N)N)C(=O)O (H-Arg-Ala-OH),,457 µM
H-VESSK-OH,0,
H-VEWAK-OH,2.73,
NCC(=O)N[C@@H](CCC(=O)O)C(=O)O (H-Gly-Glu-OH),,5370 µM
H-VEAAK-OH,0.51,
C[C@H](NC(=O)CN)C(=O)O (H-Gly-Ala-OH),,2000 µM
CC[C@H](C)[C@H](N)C(=O)NCC(=O)O (H-Ile-Gly-OH),,1200 µM
CC[C@H](C)[C@H](N)C(=O)N[C@@H](Cc1ccccc1)C(=O)O (H-Ile-Phe-OH),,933 µM
H-VELAK-OH,0.59,
H-RYLPT-OH,0.4,
H-RKWAP-OH,1.98,
NCC(=O)N[C@@H](Cc1c[nH]c2ccccc12)C(=O)O (H-Gly-Trp-OH),,30.2 µM
CSCC[C@H](NC(=O)CN)C(=O)O,,1410 µM
H-VKWAP-OH,2.35,
H-VAAWK-OH,0.23,
N=C(N)NCCC[C@H](NC(=O)[C@@H](N)Cc1ccccc1)C(=O)O (H-Phe-Arg-OH),,912 µM
NCC(=O)N[C@@H](CO)C(=O)O (H-Gly-Ser-OH),,3800 µM
H-EKWAP-OH,1.3,
H-VKAAK-OH,0.11,
